The record followed here is patent US20240158370A1, “CK1 alpha AND DUAL CK1 alpha / GSPT1 DEGRADING COMPOUNDS” (Innovo Therapeutics, Inc., priority 2022, published 2024).

Each structure is given as a SMILES string. A value given as a limit tells only on which side of the number the result lay.

One experiment concerns the target T1, CK1α (Homo sapiens, UniProt P48729+Q96SW2).
T1 construct: CSNK1A1-HiBit KI HEK293(LgBit) Cells; host or cells: HEK293(LgBit) knock-in cells
Description: HiBiT degradation assay, CK1α, Procedure A. It is filed as cell-based. On the procedure: (§1) Compounds were spotted onto Cornin 384-Well, Cell Culture-Treated, Flat-Bottom, Low Flange Microplate (Fisher Scientific, Catalog #07-201-013) using a Tecan D300e digital dispenser. Ten-point dose response curves spanning from 10 μM to 0.005 μM with a 0.1% DMSO tolerance were used.
(§2) Cells were dissociated from tissue 182 cm^2 Tissue Culture Flask (CellTreat Catalog #229351) by washing the cells with PBS (Fisher Scientific Catalog #BP3994) followed by dissociation with Trypsin-EDTA (0.25%) (Thermo Scientific Catalog #25200056). Trysin was neutralized and cells were resuspended with DMEM+10% FBS. Cells were centrifuged for 5 minutes at 1200 RPMs. Cell culture media was aspirated off and cells were resuspended with DMEM+10% FBS. Cell density was determined using a Denovix CellDrop BF cell counter. Cell density was adjusted to 1×10^6 cells/ml. 40 μl of cells was added to compound treated tissue culture plates and incubated for six hours at 37° C. After six hours, cell culture plates were removed from tissue culture incubator and cooled to room temperature. 40 μl of Nano-GloHiBiT Lytic Detection Reagent (Promega, Catalog #N3040) was added to each well. Plates were placed on an orbital shaker (600 rpm) for 20 minutes. Luminescence was measured using an Envsion plate reader (Perkin Elmer). DC50 curves and Ymin were generated using a 4-parameter curve fit with GraphPad Prism software (Prism Corporation).
(§3) Results from the HiBiT assay (DC50 (nM) and Ymin (% remaining)) are shown below. All CK1α data was generated according to Procedure A. GSPT1 data for Examples 1-600, 603-620 and 703-705 was generated according to Procedure A. GSPT1 data for Examples 601, 621-702 and 706-735 was generated according to Procedure B.
(With HiBiT, luminescence reflects the tagged protein that the partner subunit can reach.)

In another experiment the target is GSPT1 (Homo sapiens, UniProt P15170+Q96SW2). The experiment is described as follows: HiBiT degradation assay, GSPT1, Procedure A. It is filed as cell-based. On the set-up: HiBit-GSPT1 KI HEK293(LgBit) Cells; host or cells: HEK293(LgBit) knock-in cells. On the procedure: as §1, §2, §3
Chain of GSPT1 (P15170 whole entry): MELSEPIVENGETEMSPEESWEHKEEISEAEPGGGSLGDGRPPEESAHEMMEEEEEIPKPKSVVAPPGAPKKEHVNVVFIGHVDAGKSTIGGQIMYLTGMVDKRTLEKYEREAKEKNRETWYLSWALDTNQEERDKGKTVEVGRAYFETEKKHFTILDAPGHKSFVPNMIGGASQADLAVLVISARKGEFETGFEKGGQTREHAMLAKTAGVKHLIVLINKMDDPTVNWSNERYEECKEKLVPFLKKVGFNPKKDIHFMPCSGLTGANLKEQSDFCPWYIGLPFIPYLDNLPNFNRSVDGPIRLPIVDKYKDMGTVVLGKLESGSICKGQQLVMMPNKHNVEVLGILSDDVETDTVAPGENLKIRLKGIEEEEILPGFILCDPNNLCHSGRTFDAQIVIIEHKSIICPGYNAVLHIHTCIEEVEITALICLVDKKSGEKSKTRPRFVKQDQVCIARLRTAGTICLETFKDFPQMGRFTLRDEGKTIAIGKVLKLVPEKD
Chain of GSPT1 (Q96SW2 whole entry): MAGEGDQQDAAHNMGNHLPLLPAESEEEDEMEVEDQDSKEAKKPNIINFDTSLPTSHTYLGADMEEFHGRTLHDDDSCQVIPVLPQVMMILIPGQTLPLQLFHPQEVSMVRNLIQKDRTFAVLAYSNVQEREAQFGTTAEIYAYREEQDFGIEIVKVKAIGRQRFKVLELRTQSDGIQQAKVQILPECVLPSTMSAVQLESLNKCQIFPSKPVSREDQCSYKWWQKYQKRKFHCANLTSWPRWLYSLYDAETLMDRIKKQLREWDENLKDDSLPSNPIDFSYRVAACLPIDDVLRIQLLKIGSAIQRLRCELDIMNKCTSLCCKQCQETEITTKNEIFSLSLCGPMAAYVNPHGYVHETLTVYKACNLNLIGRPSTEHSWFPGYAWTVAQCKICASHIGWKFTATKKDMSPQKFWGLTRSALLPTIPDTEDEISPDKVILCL
Chain of GSPT1 (Q16531 whole entry partner): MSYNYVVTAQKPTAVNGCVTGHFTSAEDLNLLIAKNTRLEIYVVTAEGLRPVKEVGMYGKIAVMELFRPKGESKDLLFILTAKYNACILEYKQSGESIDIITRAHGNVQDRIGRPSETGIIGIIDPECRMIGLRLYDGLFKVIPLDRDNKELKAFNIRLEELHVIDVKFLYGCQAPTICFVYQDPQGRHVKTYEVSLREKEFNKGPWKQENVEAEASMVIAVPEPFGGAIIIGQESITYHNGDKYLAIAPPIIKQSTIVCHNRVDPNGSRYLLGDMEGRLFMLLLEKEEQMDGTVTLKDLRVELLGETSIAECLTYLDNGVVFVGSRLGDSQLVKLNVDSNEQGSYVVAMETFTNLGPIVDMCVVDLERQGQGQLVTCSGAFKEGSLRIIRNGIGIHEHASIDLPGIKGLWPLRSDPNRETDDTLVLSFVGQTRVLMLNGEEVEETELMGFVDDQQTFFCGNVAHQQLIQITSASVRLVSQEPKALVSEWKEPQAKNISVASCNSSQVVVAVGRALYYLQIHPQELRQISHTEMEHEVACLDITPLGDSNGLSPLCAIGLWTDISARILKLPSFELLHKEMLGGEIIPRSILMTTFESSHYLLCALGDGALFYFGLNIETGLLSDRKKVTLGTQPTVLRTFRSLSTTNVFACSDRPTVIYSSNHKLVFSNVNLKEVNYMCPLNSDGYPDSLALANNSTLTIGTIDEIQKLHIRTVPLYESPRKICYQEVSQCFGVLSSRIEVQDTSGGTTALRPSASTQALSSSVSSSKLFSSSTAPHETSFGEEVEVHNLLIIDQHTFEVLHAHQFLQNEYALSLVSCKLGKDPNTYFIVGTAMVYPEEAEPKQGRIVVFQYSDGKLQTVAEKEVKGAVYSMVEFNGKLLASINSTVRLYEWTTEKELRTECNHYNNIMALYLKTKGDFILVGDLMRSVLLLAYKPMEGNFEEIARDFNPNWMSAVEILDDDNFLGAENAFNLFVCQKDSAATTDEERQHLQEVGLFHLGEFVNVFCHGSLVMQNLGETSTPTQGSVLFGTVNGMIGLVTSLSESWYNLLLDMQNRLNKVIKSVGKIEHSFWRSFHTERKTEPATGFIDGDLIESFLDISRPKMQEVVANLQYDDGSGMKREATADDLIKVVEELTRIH

T1 sequence (P48729 whole entry): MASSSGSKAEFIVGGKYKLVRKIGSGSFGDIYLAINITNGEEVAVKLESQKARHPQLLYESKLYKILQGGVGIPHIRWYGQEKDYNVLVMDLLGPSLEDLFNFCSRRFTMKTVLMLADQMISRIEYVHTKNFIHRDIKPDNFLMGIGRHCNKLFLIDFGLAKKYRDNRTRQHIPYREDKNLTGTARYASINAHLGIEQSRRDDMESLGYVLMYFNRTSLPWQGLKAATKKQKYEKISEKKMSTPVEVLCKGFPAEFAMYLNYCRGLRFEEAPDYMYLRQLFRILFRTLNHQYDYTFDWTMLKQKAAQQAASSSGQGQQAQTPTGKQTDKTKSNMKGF
T1 sequence (Q96SW2 whole entry): as the sequence (Q96SW2 whole entry) above
T1 sequence (Q16531 whole entry partner): as the sequence (Q16531 whole entry partner) above

By DC50 is commonly meant the midpoint of the concentration-degradation curve. In the case of `Cc1csc(-c2c(-c3ccc4c(c3)CN(C3CCC(=O)NC3=O)C4=O)cnn2C)c1` (stereo not drawn) [Example 128], at CK1α (six hours incubation), the “CK1α Ymin” value is recorded as “D (D = >10- 25% remaining)” and the DC50 was less than 25 nM. In addition, at GSPT1 (six hours incubation), the DC50 was no less than 25 nM and the “GSPT1 Ymin” value is “F (F = >75-100% remaining)”.
For `CN(C)C(=O)c1ccc(-c2c(-c3ccc4c(c3)CN(C3CCC(=O)NC3=O)C4=O)ncn2C)cc1` (stereo not drawn) [Example 289] the same measures were “C (C = 0-10% remaining)”, no less than 25 nM, no less than 25 nM and “F (F = >75-100% remaining)”.
With `Cn1cnc(-c2ccc3c(c2)CN(C2CCC(=O)NC2=O)C3=O)c1-c1ccc(Cl)s1` (stereo not drawn) [Example 181], on CK1α (six hours incubation), the “CK1α Ymin” value is “C (C = 0-10% remaining)” and the DC50 is less than 25 nM. On GSPT1 (six hours incubation), the DC50 is no less than 25 nM and the “GSPT1 Ymin” value is reported as “E (E = >25-75% remaining)”.
For `CN1CCN(c2ccc(-c3c(-c4ccc5c(c4)CN(C4CCC(=O)NC4=O)C5=O)cnn3C)cc2)CC1` (stereo not drawn) [Example 217] the same measures were “D (D = >10- 25% remaining)”, less than 25 nM, no less than 25 nM and “F (F = >75-100% remaining)”.
The corresponding values for `CC(C)c1cccc(-c2c(-c3ccc4c(c3)CN(C3CCC(=O)NC3=O)C4=O)ncn2C)c1` (stereo not drawn) [Example 183] are “E (E = >25-75% remaining)”, less than 25 nM, no less than 25 nM and “F (F = >75-100% remaining)”.
The corresponding values for `O=C1CCC(N2Cc3cc(-c4nc(C(F)(F)F)[nH]c4-c4ccccc4)ccc3C2=O)C(=O)N1` (stereo not drawn) [Example 53, 3-(1-Oxo-5-(5-phenyl-2-(trifluoromethyl)-1H-imidazol-4-yl)isoindolin-2-yl)piperidine-2,6-dione] are “C (C = 0-10% remaining)”, less than 25 nM, no less than 25 nM and “E (E = >25-75% remaining)”.
For `Cn1cnc(-c2ccc3c(c2)CN(C2CCC(=O)NC2=O)C3=O)c1-c1ccc2[nH]ncc2c1` (stereo not drawn) [Example 510], at CK1α (six hours), the “CK1α Ymin” value is listed as “C (C = 0-10% remaining)” and the DC50 was less than 25 nM. For the same compound, on GSPT1 (six hours), the DC50 is no less than 25 nM and the “GSPT1 Ymin” value was “E (E = >25-75% remaining)”.
With `COc1ccc(-c2nn(C(F)F)cc2-c2ccc3c(c2)CN(C2CCC(=O)NC2=O)C3=O)cc1F` (stereo not drawn) [Example 341, 3-(5-(1-(difluoromethyl)-3-(3-fluoro-4-methoxyphenyl)-1H-pyrazol-4-yl)-1-oxoisoindolin-2-yl)piperidine-2,6-dione], at CK1α (six hours incubation), the “CK1α Ymin” value is “E (E = >25-75% remaining)” and the DC50 is less than 25 nM. Also, at GSPT1 (six hours incubation), the DC50 was no less than 25 nM and the “GSPT1 Ymin” value was “F (F = >75-100% remaining)”.
The corresponding values for `Cn1ccc(-c2c(-c3ccc4c(c3)CN(C3CCC(=O)NC3=O)C4=O)cnn2C)c1` (stereo not drawn) [Example 363] are “C (C = 0-10% remaining)”, less than 25 nM, less than 25 nM and “F (F = >75-100% remaining)”.
For `Cc1cc(-c2c(-c3ccc4c(c3)CN(C3CCC(=O)NC3=O)C4=O)ncn2C)ccc1F` (stereo not drawn) [Example 238] the same measures were “D (D = >10- 25% remaining)”, less than 25 nM, no less than 25 nM and “F (F = >75-100% remaining)”.
The corresponding values for `CCn1cnc(-c2ccc3c(c2)CN(C2CCC(=O)NC2=O)C3=O)c1-c1ccccc1` (stereo not drawn) [Example 26, 3-(5-(1-Ethyl-5-phenyl-1H-imidazol-4-yl)-1-oxoisoindolin-2-yl)piperidine-2,6-dione] are “C (C = 0-10% remaining)”, less than 25 nM, less than 25 nM and “E (E = >25-75% remaining)”.
For `Cn1cnc(-c2ccc3c(c2)CN(C2CCC(=O)NC2=O)C3=O)c1-c1ccc(S(=O)(=O)NC2CCCCC2)cc1` (stereo not drawn) [Example 448], on CK1α (six hours), the “CK1α Ymin” value is recorded as “D (D = >10- 25% remaining)” and the 50% degradation concentration (DC50) is no less than 25 nM. Besides, on GSPT1 (six hours), the DC50 was no less than 25 nM and the “GSPT1 Ymin” value is recorded as “F (F = >75-100% remaining)”.
As to `COc1ncccc1-c1c(-c2ccc3c(c2)CN(C2CCC(=O)NC2=O)C3=O)ncn1C` (stereo not drawn) [Example 327], at CK1α (six hours incubation), the “CK1α Ymin” value is “D (D = >10- 25% remaining)” and the DC50 was less than 25 nM. Further, at GSPT1 (six hours incubation), the DC50 was less than 25 nM and the “GSPT1 Ymin” value was “F (F = >75-100% remaining)”.
On to `Cc1cc(-c2c(-c3ccc4c(c3)CN(C3CCC(=O)NC3=O)C4=O)cnn2C)c(C)s1` (stereo not drawn) [Example 213], for which, on CK1α (six hours incubation), the “CK1α Ymin” value is reported as “E (E = >25-75% remaining)” and the DC50 was less than 25 nM. In addition, on GSPT1 (six hours incubation), the DC50 is no less than 25 nM and the “GSPT1 Ymin” value is listed as “F (F = >75-100% remaining)”.
In the case of `Cn1cnc(-c2ccc3c(c2)CN(C2CCC(=O)NC2=O)C3=O)c1-c1ccc(C2(C#N)CC2)cc1` (stereo not drawn) [Example 279], on CK1α (six hours incubation), the “CK1α Ymin” value is on record as “D (D = >10- 25% remaining)” and the 50% degradation concentration (DC50) is less than 25 nM. On GSPT1 (six hours incubation), the DC50 was no less than 25 nM and the “GSPT1 Ymin” value is given as “F (F = >75-100% remaining)”.
As to `COc1ccc(-c2c(-c3ccc4c(c3)CN(C3CCC(=O)NC3=O)C4=O)cnn2C(F)F)cc1F` (stereo not drawn) [Example 417, 3-(5-(1-(difluoromethyl)-5-(3-fluoro-4-methoxyphenyl)-1H-pyrazol-4-yl)-1-oxoisoindolin-2-yl)piperidine-2,6-dione], on CK1α (six hours), the “CK1α Ymin” value is “D (D = >10- 25% remaining)” and the DC50 is less than 25 nM. Moreover, at GSPT1 (six hours), the DC50 was no less than 25 nM and the “GSPT1 Ymin” value is “F (F = >75-100% remaining)”.
As for `Cn1ncc(-c2ccc3c(c2)CN(C2CCC(=O)NC2=O)C3=O)c1-c1ccc(F)cc1` (stereo not drawn) [Example 8, 3-(5-(5-(4-fluorophenyl)-1-methyl-1H-pyrazol-4-yl)-1-oxoisoindolin-2-yl)piperidine-2,6-dione], at CK1α (six hours incubation), the “CK1α Ymin” value is given as “E (E = >25-75% remaining)” and the DC50 was less than 25 nM. Besides, on GSPT1 (six hours incubation), the DC50 was no less than 25 nM and the “GSPT1 Ymin” value is “F (F = >75-100% remaining)”.
On to `Cn1ncc(-c2ccc3c(c2)CN(C2CCC(=O)NC2=O)C3=O)c1-c1ccccc1C#N` (stereo not drawn) [Example 152], for which, on CK1α (six hours incubation), the “CK1α Ymin” value is “E (E = >25-75% remaining)” and the DC50 is no less than 25 nM. Besides, at GSPT1 (six hours incubation), the DC50 was no less than 25 nM and the “GSPT1 Ymin” value is “F (F = >75-100% remaining)”.
For the compound `Cn1cnc(-c2ccc3c(c2)CN(C2CCC(=O)NC2=O)C3=O)c1-c1ccc(C#N)cc1` (stereo not drawn) [Example 165], on CK1α (six hours incubation), the “CK1α Ymin” value is “D (D = >10- 25% remaining)” and the DC50 is less than 25 nM. Moreover, at GSPT1 (six hours incubation), the half-maximal degradation concentration (DC50) is no less than 25 nM and the “GSPT1 Ymin” value is reported as “F (F = >75-100% remaining)”.
Consider `Cn1c(C2CC2)nc(-c2ccc3c(c2)CN(C2CCC(=O)NC2=O)C3=O)c1-c1cccnc1` (stereo not drawn) [Example 44, 3-(5-(2-Cyclopropyl-1-methyl-5-(pyridin-3-yl)-1H-imidazol-4-yl)-1-oxoisoindolin-2-yl)piperidine-2,6-dione], for which, at CK1α (six hours incubation), the “CK1α Ymin” value was “C (C = 0-10% remaining)” and the DC50 is less than 25 nM. Also, at GSPT1 (six hours incubation), the DC50 is no less than 25 nM and the “GSPT1 Ymin” value is listed as “F (F = >75-100% remaining)”.
On to `Cn1cnc(-c2ccc3c(c2)CN(C2CCC(=O)NC2=O)C3=O)c1-c1ccc(CN2CCOCC2)cc1` (stereo not drawn) [Example 309], for which, on CK1α (six hours incubation), the “CK1α Ymin” value is “D (D = >10- 25% remaining)” and the DC50 was less than 25 nM. At GSPT1 (six hours incubation), the DC50 is less than 25 nM and the “GSPT1 Ymin” value is listed as “F (F = >75-100% remaining)”.
Consider `O=C1CCC(N2Cc3cc(-c4cc(-c5ccccc5)[nH]n4)ccc3C2=O)C(=O)N1` (stereo not drawn) [Example 210, 3-(1-Oxo-5-(5-phenyl-1H-pyrazol-3-yl)isoindolin-2-yl)piperidine-2,6-dione], for which, on CK1α (six hours incubation), the “CK1α Ymin” value is “D (D = >10- 25% remaining)” and the DC50 is less than 25 nM. In addition, at GSPT1 (six hours incubation), the DC50 was no less than 25 nM and the “GSPT1 Ymin” value is “F (F = >75-100% remaining)”.
For `Cn1cnc(-c2ccc3c(c2)CN(C2CCC(=O)NC2=O)C3=O)c1-c1cnc(C#N)nc1` (stereo not drawn) [Example 325] the same measures were “E (E = >25-75% remaining)”, no less than 25 nM, no less than 25 nM and “F (F = >75-100% remaining)”.
The corresponding values for `Cn1ncc(-c2ccc3c(c2)CN(C2CCC(=O)NC2=O)C3=O)c1-c1ccc2c(c1)CCO2` (stereo not drawn) [Example 97] are “D (D = >10- 25% remaining)”, less than 25 nM, no less than 25 nM and “F (F = >75-100% remaining)”.
